Measured values as given in patent US20220331467A1, “HALAL DISINFECTANT LIQUID” (priority 2019, published 2022).

Assays:
rabbit skin = assay: Skin irritability test using rabbits (OECD 404); format: in vivo; conditions: 0.5 mL patch, 4 hours exposure
Experimental: To study the skin irritability and corrosiveness of a chlorous acid aqueous solution formulation, a skin irritability test was conducted using three female Kbl:NZW rabbits. The irritability reaction was compared by setting a three rabbit sodium hypochlorite formulation treatment group as a comparative control group. 0.5 mL of test substance was applied homogenously to a lint patch and exposed 4 hours to the skin on the back of the rabbits. […] In addition, the body weight before administration and at the end of observation was measured.
For administration, 0.5 mL of test substance was spread homogeneously on the lint surface of a 2.45×2.45 cm patch (lint cloth, Hasegawa Menkou) by using a MICROMAN (model M1000, Gilson), and then applied to the back skin of animals using a paper adhesive tape (KENZ). Furthermore, the entire treatment site was covered with a large lint cloth (Hasegawa Menkou), which was secured with an adhesive bandage (New-HALE, Hasegawa Menkou). Exposure time was 4 hours. The patch was removed after completion of exposure. […]
Erythema, eschar formation, and edema at sites of administration were observed 1, 24, 48, and 72 hours after patch removal, and scored in accordance with determination criteria for skin reactions (Draize, 1959). […]
The body weight was measured on the administration date (before administration) and date of completion of observation for all tested animals. […]

eye = conditions: OECD TG 405; cited from earlier work
guinea pig skin = conditions: female, Slc:Hartley, in vivo
Experimental: To find information related to the skin sensitization of a chlorous acid aqueous solution formulation, a Maximization Test was conducted using 20 female Slc:Hartley guinea pigs (SPF). […] In the test substance treatment group, 0.2 w/v % test substance solution (medium: distilled water) was intradermally injected in the first sensitization treatment using 10 animals, and a closed patch of 100% test substance solution (undiluted solution) was applied for 48 hours in the second sensitization treatment. A closed patch of 20 w/v % test substance solution was applied for 24 hours for elicitation treatment.
The prepared administered solutions (1) to (3) (section 14.9.1) of each test group were intradermally injected at 0.1 mL each to correspond to administration sites (1) to (3) in image 1.
The chest and back (image 1, site (4)) of an animal were shaved using an electric clipper and shaver on day 7. Open patch of 10% sodium dodecyl sulfate mixture (section 14.9.2) was applied thinly and homogeneously at the same site to a test substance treatment group and negative control group. […]
The body weight was measured before starting sensitization treatment (day 0) and the day of completion of observation of elicitation treatment sites (day 25). […]
The skin sensitization rate is calculated as [(number of sensitization positive animals/number of animals used)×100].

| SMILES | GHS hazard category of dermal irritation/corrosion (rabbit skin) | Severe injury to eye or eye irritability (GHS category) (eye) | Number of animals showing the sign: General condition, No abnormality observed (guinea pig skin) | Number of positive animal (guinea pig skin) |
| --- | --- | --- | --- | --- |
| OCl [Sodium hypochlorite, sodium hypochlorite] | Category 1 | Category 1 | – | – |
| CCCCCCC(C=O)=Cc1ccccc1 [HCA, α-Hexylcinnamaldehyde] | – | – | 0 | 5 |
| CCO [Ethanol 95 v/v %, Ethanol] | – | Category 2B | – | – |
